Assay results as given in patent publication US10294202B2, “Pyrrolidinones as herbicides” (FMC Corporation, priority 2013, dated 2019).

Experiments:
ryegrass, Italian = assay: Test A pre-/postemergence herbicide test; format: in vivo, Lolium multiflorum
Summary of the method: (§1)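 Visual injury ratings, 0 = no effect, 100 = complete control, taken ~10 days after treatment against untreated greenhouse controls. Preemergence: directed soil spray onto seeded loam/sand pots. Postemergence: spray onto plants at one- to two-leaf stage, 2–10 cm tall.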

barnyardgrass = assay: Test C flooded paddy test; format: in vivo, Echinochloa crus-galli; conditions: Flood
Summary of the method: (§2)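 Plants at the 2-leaf stage in pots flooded to 3 cm were treated by applying compound directly to the paddy water, with depth held throughout. After 13 to 15 days in a greenhouse, response was rated visually against controls on a 0 (no effect) to 100 (complete control) scale.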

ducksalad = assay: Test C flooded paddy test; format: in vivo, Heteranthera limosa; conditions: Flood
Summary of the method: as §2

sedge, umbrella = assay: Test C flooded paddy test; format: in vivo, Cyperus difformis; conditions: Flood
Summary of the method: as §2

morningglory = assay: Test A pre-/postemergence herbicide test; format: in vivo, Ipomoea spp.; conditions: for Plant response rating, Morningglory: 500 g ai/ha
Summary of the method: as §1

velvetleaf = assay: Test A pre-/postemergence herbicide test; format: in vivo, Abutilon theophrasti; conditions: for Plant response rating, Velvetleaf: 500 g ai/ha
Summary of the method: as §1

[1] = Postemergence, 125 g ai/ha, visual rating on 0 to 100 scale (0 no effect, 100 complete control), approx. 10 days
[2] = Postemergence, 500 g ai/ha, 0 to 100 scale (0 no effect, 100 complete control)
[3] = Preemergence, 125 g ai/ha, 0 to 100 scale where 0 is no effect and 100 is complete control
[4] = Preemergence, 500 g ai/ha, visual rating on 0 to 100 scale (0 no effect, 100 complete control)
[5] = 125 g ai/ha, visual rating, 0 to 100 scale, 0 no effect, 100 complete control, approximately 10 days, preemergence
[6] = Postemergence, 125 g ai/ha, 0 to 100 scale, 0 is no effect, 100 is complete control
[7] = preemergence, 500 g ai/ha, 0 to 100 scale, 0 is no effect and 100 is complete control
[8] = 31 g ai/ha, scale of 0 to 100 where 0 is no effect and 100 is complete control, 13 to 15 days
[9] = 62 g ai/ha, scale of 0 to 100 where 0 is no effect and 100 is complete control, 13 to 15 days
[10] = 125 g ai/ha, scale of 0 to 100 where 0 is no effect and 100 is complete control, 13 to 15 days
[11] = 250 g ai/ha, scale of 0 to 100 where 0 is no effect and 100 is complete control, 13 to 15 days
[12] = Postemergence, 0 to 100 scale (0 no effect, 100 complete control)
[13] = Preemergence, 125 g ai/ha, visual rating on 0 to 100 scale (0 no effect, 100 complete control)

Row | SMILES | Plant response rating, Ryegrass, Italian (ryegrass, Italian; [1]) | Plant response rating, Ryegrass, Italian (ryegrass, Italian; [2]) | Plant response rating, Ryegrass, Italian (ryegrass, Italian; [3]) | Ryegrass, Italian plant response rating (ryegrass, Italian; [4]) | Plant response rating, Ryegrass, Italian (ryegrass, Italian; [5]) | Ryegrass, Italian plant response rating (0 to 100 scale, 0 is no effect, 100 is complete control) (ryegrass, Italian; Postemergence, 500 g ai/ha) | Plant response rating, Ryegrass, Italian (ryegrass, Italian; [7]) | Plant response rating, Barnyardgrass (barnyardgrass; [9]) | Plant response rating, Barnyardgrass (barnyardgrass; [10]) | Plant response rating, Barnyardgrass (barnyardgrass; [11]) | Plant response rating, Ducksalad (ducksalad; [9]) | Plant response rating, Ducksalad (ducksalad; [10]) | Plant response rating, Ducksalad (ducksalad; [11]) | Plant response rating, Sedge, Umbrella (sedge, umbrella; [9]) | Plant response rating, Sedge, Umbrella (sedge, umbrella; [10]) | Plant response rating, Sedge, Umbrella (sedge, umbrella; [11]) | further results
1 | CN1CC(c2cccc(C(F)(F)F)c2)C(C(=O)Nc2cccc(F)c2F)C1=O (centres unmarked) [Compound 305] | 60 | 70 | 70 | 90 | – | – | – | – | – | – | – | – | – | – | – | – | –
2 | CC(C)c1cccc(C2CNC(=O)C2C(=O)Nc2cccc(F)c2F)c1 (centres unmarked) [Compound 319] | 30 | 50 | 30 | 60 | – | – | – | – | – | – | – | – | – | – | – | – | –
3 | O=C1NCC(c2ccc(OC(F)F)cc2)C1C(=O)Nc1cccc(F)c1F (racemic) [Compound 350] | 0 | – | 0 | 0 | – | – | – | – | – | – | – | – | – | – | – | – | –
4 | O=C1NCC(c2ccc(C(F)(F)F)cc2)C1C(=O)Nc1ccccc1F (centres unmarked) [Compound 231] | – | – | – | – | 40 | 40 | 60 | – | – | – | – | – | – | – | – | – | Plant response rating, Ryegrass, Italian (ryegrass, Italian; [6]): 20
5 | O=C1NCC(c2cc(F)cc(F)c2)C1C(=O)Nc1ccccc1Cl (racemic) [Compound 280] | 0 | 0 | 0 | – | – | – | 0 | – | – | – | – | – | – | – | – | – | –
6 | O=C1NCC(c2cccc(OC(F)F)c2)C1C(=O)Nc1ccccc1F (centres unmarked) [Compound 323] | 30 | 30 | 20 | 30 | – | – | – | 45 | 50 | 65 | 75 | 90 | 100 | 0 | 0 | 0 | Plant response rating, Barnyardgrass (barnyardgrass; [8]): 25; Plant response rating, Ducksalad (ducksalad; [8]): 50; Plant response rating, Sedge, Umbrella (sedge, umbrella; [8]): 0
7 | CN1CC(c2ccc(F)c(F)c2)C(C(=O)Nc2cccc(F)c2F)C1=O (centres unmarked) [Compound 303] | 40 | 60 | 30 | 40 | – | – | – | 20 | 60 | 70 | 60 | 70 | 100 | 0 | 0 | 0 | Plant response rating, Barnyardgrass (barnyardgrass; [8]): 0; Plant response rating, Ducksalad (ducksalad; [8]): 50; Plant response rating, Sedge, Umbrella (sedge, umbrella; [8]): 0
8 | O=C1NCC(c2ccc(F)cc2)C1C(=O)Nc1ccc(F)c(F)c1F (racemic) [Compound 120] | – | – | – | – | 30 | 50 | – | 40 | 50 | – | 100 | 100 | – | 0 | 0 | – | Plant response rating, Barnyardgrass (barnyardgrass; 250 g ai/ha, scale 0 to 100): 60; Plant response rating, Barnyardgrass (barnyardgrass; 500 g ai/ha, scale 0 to 100): 75; Plant response rating, Ducksalad (ducksalad; 250 g ai/ha, scale 0 to 100): 100; Plant response rating, Ducksalad (ducksalad; 500 g ai/ha, scale 0 to 100): 100; Plant response rating, Sedge, Umbrella (sedge, umbrella; 250 g ai/ha, scale 0 to 100): 0; Plant response rating, Sedge, Umbrella (sedge, umbrella; 500 g ai/ha, scale 0 to 100): 0; Plant response rating, Ryegrass, Italian (ryegrass, Italian; Postemergence, 125 g ai/ha, 0 to 100 scale, 0 no effect, 100 complete control): 30; Plant response rating, Ryegrass, Italian (ryegrass, Italian; preemergence, 500 g ai/ha, 0 to 100 scale): 50
9 | O=C1NCC(c2ccc(Cl)cc2)C1C(=O)Nc1cccc(F)c1F (centres unmarked) [Compound 218] | – | – | – | – | 40 | 30 | 60 | – | – | – | – | – | – | – | – | – | Plant response rating, Ryegrass, Italian (ryegrass, Italian; [6]): 0
10 | O=C1NCC(c2ccc(F)c(F)c2)C1C(=O)Nc1ccccc1C(F)(F)F (racemic) [Compound 6] | – | – | – | – | – | – | – | – | – | – | – | – | – | – | – | – | Plant response rating, Morningglory (morningglory; [12]): 0; Morningglory plant response rating (morningglory; [13]): 0; Plant response rating, Morningglory (morningglory; preemergence, 0 to 100 scale): 0; Plant response rating, Velvetleaf (velvetleaf; [12]): 10; Velvetleaf plant response rating (velvetleaf; [13]): 0; Plant response rating, Velvetleaf (velvetleaf; preemergence, 0 to 100 scale): 0
11 | CC(C)c1cccc(C2CNC(=O)C2C(=O)Nc2ccccc2F)c1 (centres unmarked) [Compound 318] | 20 | 40 | 20 | 60 | – | – | – | 30 | 60 | 70 | 60 | 100 | 100 | 0 | 0 | 0 | Plant response rating, Barnyardgrass (barnyardgrass; [8]): 20; Plant response rating, Ducksalad (ducksalad; [8]): 50; Plant response rating, Sedge, Umbrella (sedge, umbrella; [8]): 0
12 | CN1CC(c2ccc(C(F)(F)F)cc2)C(C(=O)Nc2cccc(F)c2F)C1=O (centres unmarked) [Compound 306] | 50 | 60 | 40 | 80 | – | – | – | – | – | – | – | – | – | – | – | – | –
13 | O=C1NCC(c2cccc(C(F)F)c2)C1C(=O)Nc1ccccc1F (racemic) [Compound 210] | – | – | – | – | 0 | 50 | 50 | – | 0 | 45 | – | 0 | 80 | – | 0 | 0 | Plant response rating, Barnyardgrass (barnyardgrass; 500 g ai/ha, scale 0 to 100): 70; Plant response rating, Barnyardgrass (barnyardgrass; 1000 g ai/ha, scale 0 to 100): 75; Plant response rating, Ducksalad (ducksalad; 500 g ai/ha, scale 0 to 100): 100; Plant response rating, Ducksalad (ducksalad; 1000 g ai/ha, scale 0 to 100): 100; Plant response rating, Sedge, Umbrella (sedge, umbrella; 500 g ai/ha, scale 0 to 100): 0; Plant response rating, Sedge, Umbrella (sedge, umbrella; 1000 g ai/ha, scale 0 to 100): 0; Plant response rating, Ryegrass, Italian (ryegrass, Italian; [6]): 0
